Where two headings read alike, the source gives them in different places. Marks after values point to notes of the source that are not given here.
Key:
rat = experiment: Analgesic activity test (Randall-Selitto method, Brewer's yeast); format: in vivo
Protocol: Experimental was made with "Randall-Selitto" analgesic effect measuring apparatus (manufactured by Ugo Basile in Italy), pressure was applied through a pressure terminal, and the pressure (g) applied at the time showing a wriggling motion in rat was measured as a threshold value for pain. The threshold value for pain was measured for each leg, and rats showing substantially the same degree of threshold value for pain were selected and used for the experiment. A 20 % aqueous Brewer's yeast solution was subcutaneously administered in an amount of 0.1 ml to the right hind paw of the rat, and the threshold value for pain was measured on both legs 30 min and 60 min after the administration of the aqueous solution. At the same time, a suspension of the compound of the present invention in a 2 % polysorbate 80 physiological saline (prepared by dissolving the compound of the present invention in polysorbate 80 in an amount of 2 % of the whole amount of the solution and gradually adding and mixing physiological saline therewith) was intravenously and orally administered, and the threshold value for pain of both legs was measured 15 min, 30 min, 60 min, 90 min and 120 min after the administration. The measurements were compared with the control group, and an increase in the threshold value for pain was regarded as an evidence for the analgesic activity.

5-lipoxygenase = molecular target: T1, 5-lipoxygenase (Rattus norvegicus, UniProt P12527); experiment: 5-Lipoxygenase inhibitory activity (5-HETE formation, HPLC); format: biochemical; details: enzyme preparation from RBL-1 culture cells; 10 µM arachidonic acid; 37°C, 10 min; read-out: IC₅₀
T1 construct: endogenous in cells; host or cells: RBL-1 cells (sonicated, 105,000 x G supernatant)
T1 sequence (P12527 1-673): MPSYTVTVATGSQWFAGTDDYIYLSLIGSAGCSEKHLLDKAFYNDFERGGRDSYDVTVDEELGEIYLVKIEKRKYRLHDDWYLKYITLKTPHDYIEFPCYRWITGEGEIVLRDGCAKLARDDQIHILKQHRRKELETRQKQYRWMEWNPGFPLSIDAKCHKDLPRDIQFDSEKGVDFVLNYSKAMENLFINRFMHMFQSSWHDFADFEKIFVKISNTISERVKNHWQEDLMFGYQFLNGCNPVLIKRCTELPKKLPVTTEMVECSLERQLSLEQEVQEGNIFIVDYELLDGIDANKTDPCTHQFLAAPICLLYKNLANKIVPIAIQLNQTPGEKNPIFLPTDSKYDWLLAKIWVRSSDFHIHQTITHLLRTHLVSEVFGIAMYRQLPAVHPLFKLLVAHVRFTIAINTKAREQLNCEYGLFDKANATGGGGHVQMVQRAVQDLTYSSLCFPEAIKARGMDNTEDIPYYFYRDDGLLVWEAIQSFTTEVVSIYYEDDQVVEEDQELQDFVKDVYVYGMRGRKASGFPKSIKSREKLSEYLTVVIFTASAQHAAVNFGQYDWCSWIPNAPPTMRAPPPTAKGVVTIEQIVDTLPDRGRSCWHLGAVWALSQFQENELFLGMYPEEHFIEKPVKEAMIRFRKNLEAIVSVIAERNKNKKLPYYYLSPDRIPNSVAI
Protocol: RBL-1 culture cells were suspended in a 50 mM phosphate buffer (pH: 7.4) containing 1 mM ethylenediaminetetraacetic acid (EDTA) and 10 % ethylene glycol so that the concentration was 5 x 10⁶ cells/ml. The suspension was subjected to an ultrasonic treatment and centrifuged at 10,000 x G for 10 min and further at 105,000 x G for 60 min. The resultant supernatant was used as a 5-lipoxygenase enzyme preparation.
50 mM phosphate buffer, 15 mM calcium chloride, 20 µM indomethacin, 18 mM glutathione, 6 mM adenosine triphosphate (ATP), 10 µM arachidonic acid, the enzyme preparation prepared above and an ethanol solution of the compound of the present invention were placed in a test tube in such a manner that the whole quantity was 0.6 ml and the final concentration was 5 µM, 1 µM and 0.5 µM. A reaction was allowed to proceed at 37°C for 10 min. After the completion of the reaction, 1.2 ml of acetone and 100 µl of 2 N formic acid were added thereto to terminate the reaction. […] The resultant extract was concentrated and dissolved in methanol, and the content of […] in the solution was measured by means of high performance liquid chromatography [column = TSK-gel ODS-80 TM (manufactured by Tosoh Corporation); mobile phase = acetonitrile : water : acetic acid (60 : 40 : 0.02); flow rate = 1 ml/min; ultraviolet rays for detection = 235 nm]. […]

cyclooxygenase = experiment: Cyclooxygenase inhibitory activity (PGE2 formation from [1-14C] arachidonic acid); format: biochemical; details: microsome fraction of rabbit kidney medulla; 37°C, 15 min; PGE2 radioactivity; read-out: IC₅₀
Protocol: 60 ml of a 0.1 M phosphate buffer (pH: 7.5) containing 1 mM glutathione was added to 7.0 g of medulla of kidney of a rabbit, and the mixture was homogenized through the use of a polytron. The resultant homogenate was centrifuged at 9,000 x G for 20 min to obtain a microsome fraction. This fraction was dissolved in 7 ml of a 0.1 M phosphate buffer (pH: 7.5) containing 1 […] glutathione to give a cyclooxygenase enzyme preparation.
4 mM glutathione, 10 mM tryptophan, 0.25 µM hemoglobin (each in final concentration) and a phosphate buffer (pH: 7.5) were added to 15 µl of the enzyme preparation thus prepared, and [1-¹⁴C] arachidonic acid (5 x 10⁴ dpm) and the compound of the present invention were further added thereto in such a manner that the concentrations were 40 µM, 20 µM, 10 µM and 5 µM, respectively (total amount: […]). The mixture was incubated at 37°C for 15 min, and 1 N hydrochloric acid was added thereto to terminate the reaction. Prostaglandin E₂ (PGE₂) was added thereto as a carrier, and the reaction product was extracted with 2 ml of an ether. The resultant extract was concentrated and applied to thin layer chromatography (development solvent = chloroform : methanol : acetic acid = 18 : 1 : 1) to separate a product. […] The PGE₂ radioactivity was measured by means of a liquid scintillation counter.

balb/c 3T3 cells = experiment: Inhibition of EGF-accelerated fibroblast growth (3H-thymidine incorporation); format: cell-based; details: 0.5 µg per hole compound, 50 pg per hole mouse EGF
Protocol: A culture solution (hereinafter referred to as "CS DMEM") containing 10 % calf serum adjusted in such a manner that fibroblast (balb/c 3T3 cells) was contained in a concentration of 2.5 x 10⁴ cells per 0.5 ml was incubated on a 24-hole plate in an amount of 1 ml per hole. After the fibroblast was saturated in a monolayer state, cultivation was conducted at 37°C for 12 hr in 1% CS DMEM instead of the above medium through the use of 5 % CO₂. 0.5 µg per hole of the compound of the present invention and 50 pg per hole of mouse EGF were added thereto, and the cultivation was further conducted for 16 hr. ³H-thymidine in an amount of 0.5 µCi/50 µl/well was added thereto, and the mixture was cultivated for 8 hr. Then, the culture solution was removed, and washing was conducted with a cooled isotonic phosphate buffer. A 5 % cold trichloroacetic acid was added thereto, and the mixture was allowed to stand for 30 min. The supernatant was removed, and the residue was dissolved in a 0.5 M sodium hydroxide solution. The solution was neutralized with 0.5 M hydrochloric acid, a scintillation cocktail was added thereto, and counting was conducted by means of a liquid scintillation counter. The radioactivity of ³H-thymidine incorporated into the cells accompanying the growth was measured to study the function of the novel allyl alcohol on the growth of the cell.

[1] = system: microvascular endothelial cells derived from human caul; experiment: Proliferation and migration of microvascular endothelial cells (Boyden chamber, EGF); format: cell-based; details: Endothelial cell, 10 µM/ml compound, 10 ng/ml EGF, cells that came out into the lower chamber, read-out: percentage inhibition
Protocol: 5 x 10⁴ microvascular endothelial cells derived from human caul were placed in an upper chamber of a Boyden chamber, and 10 ng/ml of EGF was added as a control to a lower chamber separated from the upper chamber by means of a filter having a pore size of 5 µm (a polycarbonate filter manufactured by Nucleobore). 10 ng/ml of EGF and 10 µM/ml of the compound of the present invention were added to the drug administration group . The number of cells which had come out into the lower chamber was measured in terms of cells per HPF […].

ICR mouse = experiment: Arachidonic acid ear lobe edema inhibiting test; format: in vivo; details: 1 mg per 20 µl acetone applied to auricle; 2 mg arachidonic acid 30 min later; ear thickness after one hour; versus control
Protocol: 1 mg of the novel allyl alcohol derivative per 20 µl of acetone were applied to the auricle on the inside of the right of an ICR mouse (female, 8 - 11 weeks old). 30 min after the application, 10 µl of an acetone solution containing 2 mg of arachidonic acid was applied to the same site, and one hour after the application of the acetone solution, the thickness of the ear was measured by means of a dial thickness gauge. An equal weight of acetone was applied to the auricle on the left side, and measurement was conducted in the same manner as that described above, and […] was regarded as swelling of the ear. Further, a group wherein the solvent was applied instead of the sample was used as a control, and the ear lobe edema inhibition was determined by the following equation. [formula]

[2] = system: platelet-rich plasma (PRP); experiment: Platelet aggregation inhibition test (Born method, in vitro); format: cell-based; details: Rattus norvegicus; for inhibition at 5 µM: compound 5 µM; for inhibition at 20 µM: compound 20 µM
Protocol: Blood was collected from a rat subjected to fasting for 12 hr so that the volume of 3.8 % sodium citrate became 1/10. The collected blood was centrifuged at room temperature and 159 x G for 10 min to collect a platelet-rich plasma (PRP). The remaining blood was centrifuged at room temperature and 1800 x G for 10 min to collect PPP (platelet poor plasma). The number of platelets was measured by means of PC-603A manufactured by Erma and adjusted to 3 x 10⁸/ml with PPP. The aggregation capability was measured according to the Born method with the concentration of PRP being 0 % (PPP) and 100 % […] through the use of a 4 channel NKK HEMATRACER aggregation meter. In an in vitro test, the novel allyl alcohol derivative was added in a concentration of 5 µM or 20 µM, the mixture was pre-incubated at 37°C for 3 min. An aggregation inducer was added thereto, and the aggregation capability was measured. Adenine diphosphate (ADP), collagen, epinephrine and arachidonic acid were used as the aggregation inducer. The concentration of the aggregation inducer was 2 µM for ADP, 1 µg/ml for collagen, 400 µM for arachidonic acid and 6 µg/ml of epinephrine. The novel ally] alcohol derivative was applied to the experiment after dissolution in dimethylsulfoxide (DMSO). The final concentration of DMSO thereof was 0.4 %, the addition of DMSO alone in this concentration had no clear effect on the aggregation of the platelet.

LD50 (acute toxicity) = details: in vivo, mouse, 72 hr after administration, read-out: LD₅₀
Protocol: A suspension of the compound of the present invention in a 2 % polysorbate 80 physiological saline (prepared by dissolving the compound of the present invention in polysorbate 80 in an amount of 2 % of the whole amount of the solution and gradually adding and mixing physiological saline therewith) was intravenously and orally administered to a mouse, and 72 hr after the administration, the LD₅₀ was calculated based on whether the mouse had survived or was dead. In the calculation, the up-and-down method was used for the intravenous administration, while the Litchfield-Wilcoxon method was used for the oral administration.

[3] = 140 mg/kg, 15 min after administration, control 123
[4] = 140 mg/kg, 30 min after administration, control 115
[5] = 140 mg/kg, 60 min after administration, control 108
[6] = inducer arachidonic acid 400 µM

## Cc1c(N(C)C)c(=O)n(-c2ccccc2)n1C [Aminopyrine, reference compound]
rat; [3]
  Threshold value for pain (g): 190^b g
rat; [4]
  Threshold value for pain (g): 235^b g
rat; [5]
  Threshold value for pain (g): 212^b g

## CCCCC/C=C/C(O)CCc1ccc(O)c(OC)c1 (stereo not shown) [compound of the present invention]
5-lipoxygenase
  IC50: 0.54 µM
cyclooxygenase
  IC50: 7.62 µM
balb/c 3T3 cells
  growth inhibition: 72.9%
[1]
  inhibition at 10 µM: 82%
ICR mouse
  edema inhibition: 83%
[2]; inducer ADP 2 µM
  inhibition at 5 µM: 12%
  inhibition at 20 µM: 26%
[2]; [6]
  inhibition at 5 µM: 67%
  inhibition at 20 µM: 96%
[2]; inducer collagen 1 µg/ml
  inhibition at 5 µM: 21%
  inhibition at 20 µM: 43%
[2]; inducer epinephrine 6 µg/ml
  inhibition at 5 µM: 52%
  inhibition at 20 µM: 63%
rat; 70 mg/kg, 15 min after administration, control 123
  Threshold value for pain (g): 153^a g
rat; 70 mg/kg, 30 min after administration, control 115
  Threshold value for pain (g): 183^b g
rat; 70 mg/kg, 60 min after administration, control 108
  Threshold value for pain (g): 142^a g
rat; [3]
  Threshold value for pain (g): 190^b g
rat; [4]
  Threshold value for pain (g): 222^b g
rat; [5]
  Threshold value for pain (g): 210^b g
rat; dose of 5 mg/kg, within 15 to 60 min, p < 0.05
  threshold value for pain as compared with the control group: significant increase
LD50 (acute toxicity); Intravenous, up-and-down method
  LD50 at 72 hr: 75.6 mg/kg
LD50 (acute toxicity); Oral, Litchfield-Wilcoxon method
  LD50 at 72 hr: 1340 mg/kg

From EP0532759A1, “NOVEL ALLYL ALCOHOL DERIVATIVE” (TSUMURA & CO., priority 1991, dated 1992)
